Assay results from patent US20120220567A1, “BENZO-FUSED OXAZEPINE COMPOUNDS AS STEAROYL-COENZYME A DELTA-9 DESATURASE INHIBITORS” (priority 2009, published 2012).

Biological target: T1, SCD-1 (Homo sapiens, UniProt O00767)
T1 construct: 50 μg of protein from a HepG2 cell P2 pellet; endogenous in cells; host or cells: HepG2 cells (P2 pellet)
T1 sequence (O00767 1-359): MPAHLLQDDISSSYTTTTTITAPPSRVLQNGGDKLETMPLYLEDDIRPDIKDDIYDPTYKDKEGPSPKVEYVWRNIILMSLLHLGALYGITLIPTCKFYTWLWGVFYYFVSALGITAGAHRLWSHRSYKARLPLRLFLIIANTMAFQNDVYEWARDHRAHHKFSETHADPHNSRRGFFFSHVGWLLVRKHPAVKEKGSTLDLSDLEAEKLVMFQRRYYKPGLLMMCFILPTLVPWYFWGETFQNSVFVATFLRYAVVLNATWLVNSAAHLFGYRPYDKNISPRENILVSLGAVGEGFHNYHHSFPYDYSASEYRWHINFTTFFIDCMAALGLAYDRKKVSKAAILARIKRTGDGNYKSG
Test: Stearoyl-CoA desaturase assay (HepG2 cell P2 pellet)
Type: biochemical
Conditions: Table 2, compounds of formula (Ib); protein from HepG2 cell P2 pellet, 20 μM stearoyl-CoA, 15 min at 25° C.; read-out: Ave IC50
Method: Stearoyl-CoA desaturase assays were performed in according to Talamo and Bloch. […] Assays were run in triplicate in 100-μl volumes of 100 mM TrisHCl, pH 7.3, containing 20 μM stearoyl-CoA, 2 mM β-NADH, and 50 μg of protein from a HepG2 cell P2 pellet. Since SCD-1 is the only isoform of SCD expressed in these cells, the assay is specific for SCD-1 with these cells as the source of enzyme. Reaction mixtures were incubated fifteen minutes at 25° C. and reactions were then stopped with a volume of trichloroacetic acid giving a final concentration of 0.2%. After five minutes, a 90-μl volume was transferred to a Millipore Multiscreen HTS 96-well filtration plate (MSHVN4B50) containing 125 μl of 10% charcoal in each well, to which vacuum had been previously applied. Plates were shaken fifteen minutes and then filtered into a collection plate. Fifty-μI volumes of filtrate were transferred to another plate containing 150 μl of MicroScint 40 for counting on a TopCount scintillation counter.

Row | Structure (SMILES) | IC50 [nM]
1 | O=C(NC[C@H](O)CO)c1cnc(N2CCC3(CC2)CCN(Cc2cccc(C(F)(F)F)c2)c2ccccc2O3)s1 [Compound 61] | 0.5 to 49
2 | O=C(NCCCO)c1cnc(N2CCC3(CC2)CCN(Cc2cccc(C(F)(F)F)c2)c2ccccc2O3)s1 [Compound 62] | 0.5 to 49
3 | CC(C)(C)c1ccc(CN2CCC3(CCN(c4ncc(C(=O)NC5CC5)s4)CC3)Oc3ccccc32)cc1 [Compound 65] | 50 to 499
4 | CCN(C)C(=O)c1cnc(N2CCC3(CC2)CCN(Cc2ccc(C(C)(C)C)cc2)c2ccccc2O3)s1 [Compound 66] | 50 to 499
5 | CC(C)(C)c1ccc(CN2CCC3(CCN(c4ncc(C(=O)NCc5ccccc5)s4)CC3)Oc3ccccc32)cc1 [Compound 67] | 500 to 10000
6 | CCNC(=O)c1cnc(N2CCC3(CC2)CCN(Cc2ccc(C(C)(C)C)cc2)c2ccccc2O3)s1 [Compound 68] | 0.5 to 49
7 | COC(=O)CCNC(=O)c1cnc(N2CCC3(CC2)CCN(Cc2ccc(C(C)(C)C)cc2)c2ccccc2O3)s1 [Compound 69] | 0.5 to 49
8 | CNC(=O)c1cnc(N2CCC3(CC2)CCN(Cc2ccc(C(C)(C)C)cc2)c2ccccc2O3)s1 [Compound 70] | 0.5 to 49
9 | CC(C)(C)c1ccc(CN2CCC3(CCN(c4ncc(C(=O)Nc5ccccc5)s4)CC3)Oc3ccccc32)cc1 [Compound 71] | > 10000
10 | CC(C)(C)c1ccc(CN2CCC3(CCN(c4ncc(C(=O)N5CCCC5)s4)CC3)Oc3ccccc32)cc1 [Compound 72] | 500 to 10000
11 | Cn1cnc(-c2cnc(N3CCC4(CC3)CCN(Cc3ccc(C(C)(C)C)cc3)c3ccccc3O4)s2)n1 [Compound 73] | 0.5 to 49
12 | Cc1ccc(CCNC(=O)c2cnc(N3CCC4(CC3)CCN(Cc3ccc(C(C)(C)C)cc3)c3cccc(F)c3O4)s2)s1 [Compound 78] | 500 to 10000
13 | CC(C)(C)c1ccc(CN2CCC3(CCN(c4ncc(C(=O)NCC[C@H]5CC[C@H](O)C5)s4)CC3)Oc3c(F)cccc32)cc1 [Compound 80] | 500 to 10000
14 | CC(C)(C)c1ccc(CN2CCC3(CCN(c4ncc(C(=O)NCCN5CCCC5=O)s4)CC3)Oc3c(F)cccc32)cc1 [Compound 81] | 500 to 10000
15 | CC(C)(C)c1ccc(CN2CCC3(CCN(c4ncc(C(=O)NCCc5cccs5)s4)CC3)Oc3c(F)cccc32)cc1 [Compound 83] | 500 to 10000
16 | CC(C)(C)c1ccc(CN2CCC3(CCN(c4ncc(C(=O)NCc5ccccn5)s4)CC3)Oc3c(F)cccc32)cc1 [Compound 85] | 50 to 499
17 | CC(C)(C)c1ccc(CN2CCC3(CCN(c4ncc(C(=O)NCCCn5ccnn5)s4)CC3)Oc3c(F)cccc32)cc1 [Compound 86] | 500 to 10000
18 | CC(C)(C)c1ccc(CN2CCC3(CCN(c4ncc(C(=O)NCc5ccccc5F)s4)CC3)Oc3c(F)cccc32)cc1 [Compound 87] | 50 to 499
19 | Cc1nn(C)c(C)c1CNC(=O)c1cnc(N2CCC3(CC2)CCN(Cc2ccc(C(C)(C)C)cc2)c2cccc(F)c2O3)s1 [Compound 90] | 500 to 10000
20 | CC(C)(C)c1ccc(CN2CCC3(CCN(c4ncc(C(=O)NCCc5ccsc5)s4)CC3)Oc3c(F)cccc32)cc1 [Compound 92] | 500 to 10000
21 | CC(C)(C)c1ccc(CN2CCC3(CCN(c4ncc(C(=O)NC[C@H](O)c5ccccc5)s4)CC3)Oc3c(F)cccc32)cc1 [Compound 99] | 500 to 10000
22 | Cc1n[nH]c(C)c1CCNC(=O)c1cnc(N2CCC3(CC2)CCN(Cc2ccc(C(C)(C)C)cc2)c2cccc(F)c2O3)s1 [Compound 100] | > 10000
23 | CC(C)(C)c1ccc(CN2CCC3(CCN(c4ncc(C(=O)NCc5ccccn5)s4)CC3)Oc3c(F)cccc32)cc1 [Compound 106] | > 10000
24 | CC(C)(C)c1ccc(CN2CCC3(CCN(c4ncc(C(=O)NCCc5c[nH]cn5)s4)CC3)Oc3c(F)cccc32)cc1 [Compound 111] | > 10000
25 | Cc1cnc(CNC(=O)c2cnc(N3CCC4(CC3)CCN(Cc3ccc(C(C)(C)C)cc3)c3cccc(F)c3O4)s2)cn1 [Compound 112] | 500 to 10000
26 | CC(C)(C)c1ccc(CN2CCC3(CCN(c4ncc(C(=O)NCCN5CCNC5=O)s4)CC3)Oc3c(F)cccc32)cc1 [Compound 113] | 500 to 10000
27 | CC(C)(C)OC(=O)CCNC(=O)c1cnc(N2CCC3(CC2)CCN(Cc2ccc(C(C)(C)C)cc2)c2cccc(F)c2O3)s1 [Compound 116] | 0.5 to 49
28 | CC(C)(C)c1ccc(CN2CCC3(CCN(c4ncc(C(=O)NCCCN5CCCC5)s4)CC3)Oc3c(F)cccc32)cc1 [Compound 117] | > 10000
29 | CC(C)(C)c1ccc(CN2CCC3(CCN(c4ncc(C(=O)NCC(O)c5ccccn5)s4)CC3)Oc3c(F)cccc32)cc1 (stereo not shown) [Compound 118] | 50 to 499
30 | CC(C)(C)c1ccc(CN2CCC3(CCN(c4ncc(C(=O)NCCn5ccnc5)s4)CC3)Oc3c(F)cccc32)cc1 [Compound 119] | > 10000

Second part, the compound after the results:

Row | IC50 [nM] | Structure (SMILES)
31 | 50 to 499 | CC(C)(C)c1ccc(CN2CCC3(CCN(c4ncc(C(=O)O)s4)CC3)Oc3ccccc32)cc1 [Compound 64]
32 | 0.5 to 49 | CC(C)(C)c1ccc(CN2CCC3(CCN(c4ncc(C(=O)O)s4)CC3)Oc3c(F)cccc32)cc1 [Compound 74]
33 | 0.5 to 49 | CC(C)(C)c1ccc(CN2CCC3(CCN(c4ncc(C(N)=O)s4)CC3)Oc3c(F)cccc32)cc1 [Compound 76]
34 | 50 to 499 | CC(C)(C)c1ccc(CN2CCC3(CCN(c4ncc(C(=O)NCC5CCCO5)s4)CC3)Oc3c(F)cccc32)cc1 (stereo not shown) [Compound 79]
35 | > 10000 | CC(C)(C)c1ccc(CN2CCC3(CCN(c4ncc(C(=O)NC[C@H]5CC[C@H](O)C5)s4)CC3)Oc3c(F)cccc32)cc1 [Compound 82]
36 | 500 to 10000 | CC(C)CNC(=O)c1cnc(N2CCC3(CC2)CCN(Cc2ccc(C(C)(C)C)cc2)c2cccc(F)c2O3)s1 [Compound 84]
37 | 0.5 to 49 | CC(C)(C)c1ccc(CN2CCC3(CCN(c4ncc(C(=O)NCC5OCCO5)s4)CC3)Oc3c(F)cccc32)cc1 [Compound 88]
38 | 50 to 499 | CC(C)(C)c1ccc(CN2CCC3(CCN(c4ncc(C(=O)NCC5CCCO5)s4)CC3)Oc3c(F)cccc32)cc1 (stereo not shown) [Compound 89]
39 | 50 to 499 | CC(C)(C)c1ccc(CN2CCC3(CCN(c4ncc(C(=O)NCCC(N)=O)s4)CC3)Oc3c(F)cccc32)cc1 [Compound 91]
40 | 50 to 499 | C[S+]([O-])CCNC(=O)c1cnc(N2CCC3(CC2)CCN(Cc2ccc(C(C)(C)C)cc2)c2cccc(F)c2O3)s1 (stereo not shown) [Compound 93]
41 | 50 to 499 | CCCNC(=O)c1cnc(N2CCC3(CC2)CCN(Cc2ccc(C(C)(C)C)cc2)c2cccc(F)c2O3)s1 [Compound 94]
42 | 50 to 499 | CC(C)(C)c1ccc(CN2CCC3(CCN(c4ncc(C(=O)NC[C@@H](O)CO)s4)CC3)Oc3c(F)cccc32)cc1 [Compound 95]
43 | 0.5 to 49 | CC(C)(C)c1ccc(CN2CCC3(CCN(c4ncc(C(=O)NCCCO)s4)CC3)Oc3c(F)cccc32)cc1 [Compound 96]
44 | 500 to 10000 | Cc1cc(CNC(=O)c2cnc(N3CCC4(CC3)CCN(Cc3ccc(C(C)(C)C)cc3)c3cccc(F)c3O4)s2)no1 [Compound 97]
45 | 50 to 499 | CC(C)(C)c1ccc(CN2CCC3(CCN(c4ncc(C(=O)NCC(F)(F)F)s4)CC3)Oc3c(F)cccc32)cc1 [Compound 98]
46 | 500 to 10000 | CC(C)(C)c1ccc(CN2CCC3(CCN(c4ncc(C(=O)NCCN5CCCC5)s4)CC3)Oc3c(F)cccc32)cc1 [Compound 101]
47 | 500 to 10000 | CC(C)(C)c1ccc(CN2CCC3(CCN(c4ncc(C(=O)NCc5ccco5)s4)CC3)Oc3c(F)cccc32)cc1 [Compound 102]
48 | 50 to 499 | COCCNC(=O)c1cnc(N2CCC3(CC2)CCN(Cc2ccc(C(C)(C)C)cc2)c2cccc(F)c2O3)s1 [Compound 103]
49 | 50 to 499 | Cc1ccc(CNC(=O)c2cnc(N3CCC4(CC3)CCN(Cc3ccc(C(C)(C)C)cc3)c3cccc(F)c3O4)s2)o1 [Compound 104]
50 | > 10000 | CN(C)CCNC(=O)c1cnc(N2CCC3(CC2)CCN(Cc2ccc(C(C)(C)C)cc2)c2cccc(F)c2O3)s1 [Compound 105]
51 | 500 to 10000 | CN(C)CCCNC(=O)c1cnc(N2CCC3(CC2)CCN(Cc2ccc(C(C)(C)C)cc2)c2cccc(F)c2O3)s1 [Compound 107]
52 | 50 to 499 | COCCCNC(=O)c1cnc(N2CCC3(CC2)CCN(Cc2ccc(C(C)(C)C)cc2)c2cccc(F)c2O3)s1 [Compound 108]
53 | 500 to 10000 | CC(C)CCNC(=O)c1cnc(N2CCC3(CC2)CCN(Cc2ccc(C(C)(C)C)cc2)c2cccc(F)c2O3)s1 [Compound 109]
54 | 0.5 to 49 | C[C@H](O)CNC(=O)c1cnc(N2CCC3(CC2)CCN(Cc2ccc(C(C)(C)C)cc2)c2cccc(F)c2O3)s1 [Compound 110]
55 | 0.5 to 49 | CC(C)(C)OC(=O)CNC(=O)c1cnc(N2CCC3(CC2)CCN(Cc2ccc(C(C)(C)C)cc2)c2cccc(F)c2O3)s1 [Compound 115]
56 | > 10000 | Cn1cncc1CNC(=O)c1cnc(N2CCC3(CC2)CCN(Cc2ccc(C(C)(C)C)cc2)c2cccc(F)c2O3)s1 [Compound 121]
57 | > 10000 | CC(C)(C)CCNC(=O)c1cnc(N2CCC3(CC2)CCN(Cc2ccc(C(C)(C)C)cc2)c2cccc(F)c2O3)s1 [Compound 122]
58 | 0.5 to 49 | CC(C)(C)c1ccc(CN2CCC3(CCN(c4ncc(C(=O)NCCC(=O)O)s4)CC3)Oc3c(F)cccc32)cc1 [Compound 123]
